Laboratory results: patent US7728146B2, “Enzyme inhibitors” (Probiodrug AG, priority 2006, dated 2010)

Experiments:
[1] = target: dipeptidyl peptidase (DP IV) (UniProt P27487); test: Determination of IC50 against DP IV (hydrolysis of Gly-Pro-pNA); format: biochemical, porcine kidney or recombinant human; details: compounds obtained by preparative synthesis
Method in brief: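 Porcine kidney or recombinant human DP IV (about 40–50 μU/ml) in HEPES pH 7.6 (I=0.32) with Gly-Pro-pNA at room temperature, 5% DMSO, 11 twofold dilutions from 100 μM final. pNA release at 405 nm over ~18 min; slopes give residual activity versus solvent, IC50 by 4-parameter fit.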

[2] = target: DP9 (Homo sapiens, UniProt Q86TI2); test: DP9 assay; format: biochemical; details: for Selectivity DP9(IC50)/DPIV(Ki): ratio IC50 DP9 / Ki DP IV
Experimental: Determination of IC50 values for DPII and DP9 are done similarly as described for DP IV.
For DP9 Gly Pro-AMC is used as substrate in a final concentration of 0.25 mM.

[3] = system: liver cell carcinoma cell line Hep-G2; test: Cytotoxicity screening and LD50 determination on Hep-G2 (LDH, CytoTox-One); format: cell-based; details: for LD50 Viability HEP-G2 / LD50 cytotox HEP-G2: 8 serial dilutions, highest concentration 1 mM; for Cytotox 100 μM (%) HEPG2 / Viability 100 μM (%) HEP-G2: 24 h; for Cytotox 100 μM (%) HEPG2: LDH activity in cell culture media, lysed untreated cells = 100%; for Viability 100 μM (%) HEP-G2: LDH of lysed cells, untreated control = 100%; for Cytotox 100 μM (%) HEPG2 / Viability 100 μM (%) HEP-G2 / Observed cytotox: 100 μM; for Observed cytotox: Hep-G2, observation of the cells
Method in brief: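 Hep-G2 cells (50 000/well) precultured 24 h, then compound in DMSO (final 1%) added for 24 h. Screen at 100 μM, 2 μM, 40 nM in triplicate. LDH in medium gave cytotoxicity (untreated 0%, lysed 100%); LDH of lysed cells gave viability. LD50 from 8 serial dilutions, top 1 mM.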

[4] = system: neuroblastoma cell line SY5Y; test: LD50 determination on SY5Y (LDH); format: cell-based; details: 8 serial dilutions, highest concentration 1 mM
Experimental: After 24 h of cultivation in a 96 well plate (50 000 cells/well) compounds (dissolved in DMSO) are added and cytotoxicity and vitality of the cells are analysed after another 24 h of cultivation using the CytoTox-One Homogenoeous membrane toxicity assay (Promega).
For cytotoxicity the LDH activity in the cell culture media after 24 h of incubation are analysed. The untreated control is set to 0% cytotoxicity. For the 100% value LDH activity of lysed untreated cells are analysed.
For viability cell culture media are removed from the cells and all cells are lysed using the lysis buffer. LDH activity is determined and untreated control is set to 100% viability.
For determination of LD50 the liver carcinoma cell line HEP-G2 and the neuroblastoma cell line SY5Y may be used. The effect of 8 serial dilutions of the compounds (highest concentration 1 mM) is investigated as described above.

[5] = Caco-2 transport assay; format: in vitro ADME, human; details: human, Caco-2, pH 7.5; for Papp A→B: apical to basal; for Papp B→A: basal to apical
Experimental: (§1) The concentration of compounds in the Caco experiments may be determined from their potency to inhibit recombinant human DP IV.
(§2) Reaction is started by addition of 20 μl rhDP IV and release of pNA was monitored at 405 nm. Samples are analyzed in several dilutions (undiluted, 1:10, 1:[…]). Dilutions are done in the Caco assay buffer. Activity measured with Caco-assay buffer alone is set to 100% and inhibitor concentration is calculated from the dilutions resulting in 20 to 80% inhibition according to the equation for competitive inhibition.
(§3) [formula] • I=inhibitor concentration • v0=velocity of the reaction without inhibitor (Caco assay buffer alone) • vi=velocity of the reaction with inhibitor sample • Ki=Ki-value of the compound • DF=dilution factor of the sample Transport Assay
(§4) The human colon adenocarcinome cell line Caco-2 are grown in 6- or 24-transwell microplates (Costar) for 21 days with MEM-alpha containing 10% FBS and 0.5% Gentamycin (Invitrogen). After 21 days of cultivation integrity of the cell layer are assessed by measurement of the transepitelial electrical resistance.
(§5) Transport measurements are carried out in triplicates at a pH of 7.5. For each compound and direction (apical to basal (a-b), basal to apical (b-a)) two separate experiments are done. Samples are collected from the donor and acceptor compartments at the beginning of the experiment and after 60 min (for 6-well plates, Donor at 0 and 120 min, Acceptor at 15, 30, 60 and 120 min).
(§6) Samples are analyzed in several dilutions for their ability to inhibit human recombinant DP IV and compound concentrations may be calculated using the prior determined Ki-value (see above).
(§7) The permeability coefficient Papp is calculated according to the following equation:
(§8) [formula] • VA=Volume of the acceptor compartment • A=Area of the transwell membrane • t=sampling time • cAt=concentration in the acceptor compartment at sampling time • CDO=concentration in the donor compartment at t=0
(§9) Papp-values>1e-5 cm/s are assessed as good permeable, value<1e-6 cm/s as not permeable. Papp-values in between as medium permeable. Compounds where no significant difference were found between a-b and b-a transport are assessed to be passive transported.

[6] = system: Caco-2 monolayer; test: Caco-2 transport assay; format: in vitro ADME, human; details: assessment of permeability and transport type
Experimental: as §1, §2, §3, §4, §5, §6, §7, §8, §9

Sequence of DP9 (Q86TI2 whole entry, species assumed): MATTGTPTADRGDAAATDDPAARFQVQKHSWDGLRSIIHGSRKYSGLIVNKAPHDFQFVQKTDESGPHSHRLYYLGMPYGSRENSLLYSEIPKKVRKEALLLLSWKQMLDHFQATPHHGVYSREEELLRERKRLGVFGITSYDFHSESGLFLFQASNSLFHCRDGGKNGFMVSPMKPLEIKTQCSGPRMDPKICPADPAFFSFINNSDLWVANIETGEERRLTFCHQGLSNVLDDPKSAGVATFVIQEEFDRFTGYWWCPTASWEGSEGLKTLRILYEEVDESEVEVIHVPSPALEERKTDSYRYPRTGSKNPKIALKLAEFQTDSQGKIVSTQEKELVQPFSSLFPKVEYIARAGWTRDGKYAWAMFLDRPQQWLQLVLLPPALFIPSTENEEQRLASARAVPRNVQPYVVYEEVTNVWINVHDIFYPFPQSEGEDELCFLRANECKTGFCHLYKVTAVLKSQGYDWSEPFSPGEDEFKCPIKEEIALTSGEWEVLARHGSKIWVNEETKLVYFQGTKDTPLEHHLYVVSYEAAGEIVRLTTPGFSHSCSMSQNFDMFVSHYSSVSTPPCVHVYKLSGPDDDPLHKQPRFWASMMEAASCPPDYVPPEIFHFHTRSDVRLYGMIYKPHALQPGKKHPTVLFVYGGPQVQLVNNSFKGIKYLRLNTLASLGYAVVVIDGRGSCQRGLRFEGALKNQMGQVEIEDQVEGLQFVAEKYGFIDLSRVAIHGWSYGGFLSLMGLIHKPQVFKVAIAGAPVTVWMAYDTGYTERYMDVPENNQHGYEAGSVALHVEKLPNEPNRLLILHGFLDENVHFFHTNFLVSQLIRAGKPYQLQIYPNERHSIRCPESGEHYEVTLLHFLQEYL

## NCc1c(-c2ccc(Cl)cc2Cl)ncn1Cc1ccsc1 [Example 130b, (4-(2,4-dichlorophenyl)-1-((thiophen-3-yl)methyl)-1H-imidazol-5-yl)methanamine]
[1]
  IC50: 62 nM
[2]
  Ki: 21500 nM
  Selectivity DP9(IC50)/DPIV(Ki): 12,653
[2]; Gly Pro-AMC 0.25 mM
  IC50: 97300 nM
[3]
  LD50 Viability HEP-G2: 0.24 mM
  LD50 cytotox HEP-G2: 0.21 mM
[4]
  LD50 Viability SY5Y: 0.17 mM
  LD50 cytotox SY5Y: 0.28 mM
[5]
  Papp A→B: 40 ×10⁻⁶ cm/s
  Papp B→A: 31.2 ×10⁻⁶ cm/s
[6]
  Transport: good, passive

## NCc1c(-c2ccc(Cl)cc2Cl)ncn1Cc1cccnc1 [Example 121b, (4-(2,4-dichlorophenyl)-1-((pyridin-3-yl)methyl)-1H-imidazol-5-yl)methanamine]
[1]
  IC50: 83 nM
[2]
  Selectivity DP9(IC50)/DPIV(Ki): 34,797
[3]
  Cytotox 100 μM (%) HEPG2: 0%
  Viability 100 μM (%) HEP-G2: 104.0%
  LD50 Viability HEP-G2: 1.05 mM
  LD50 cytotox HEP-G2: 0.92 mM
[4]
  LD50 Viability SY5Y: 0.46 mM
  LD50 cytotox SY5Y: 0.68 mM
[5]
  Papp A→B: 36.4 ×10⁻⁶ cm/s
  Papp B→A: 40.4 ×10⁻⁶ cm/s
[6]
  Transport: good, passive

## NCc1c(-c2ccc(Cl)cc2Cl)ncn1Cc1ccccn1 [Example 39b]
[1]
  IC50: 59 nM
[2]
  Selectivity DP9(IC50)/DPIV(Ki): 20,951
[3]
  Cytotox 100 μM (%) HEPG2: 3.9%
  Viability 100 μM (%) HEP-G2: 115.7%
  Observed cytotox: 20% spheric
  LD50 Viability HEP-G2: 0.80 mM
  LD50 cytotox HEP-G2: 0.74 mM
[4]
  LD50 Viability SY5Y: 0.29 mM
  LD50 cytotox SY5Y: 0.60 mM
[5]
  Papp A→B: 40.6 ×10⁻⁶ cm/s
  Papp B→A: 42.5 ×10⁻⁶ cm/s
[6]
  Transport: good, passive

## NCc1c(-c2ccc(Cl)cc2Cl)ncn1Cc1ccccc1 [Example 24b, (1-benzyl-4-(2,4-dichlorophenyl)-1H-imidazol-5-yl)methanamine]
[1]
  IC50: 123 nM
[2]
  Selectivity DP9(IC50)/DPIV(Ki): 25,527
[3]
  Cytotox 100 μM (%) HEPG2: 5.9%
  Viability 100 μM (%) HEP-G2: 119.2%
  Observed cytotox: 10% spheric
  LD50 Viability HEP-G2: 0.20 mM
  LD50 cytotox HEP-G2: 0.18 mM
[4]
  LD50 Viability SY5Y: 0.11 mM
  LD50 cytotox SY5Y: 0.19 mM
[5]
  Papp A→B: 37.5 ×10⁻⁶ cm/s
  Papp B→A: 41.7 ×10⁻⁶ cm/s
[6]
  Transport: good, passive
